From US7678386B2, “Liposomes coated with selected antibodies that bind to aminophospholipids” (Board of Regents the University of Texas, priority 2002, dated 2010)
Read-outs that look alike come from different tables or passages of the source.

What was measured:
[1] = ELISA on plates coated with phospholipids (specificity); type: binding; details: identical antibody concentration
Experimental: The protocol entails coating 96-well plate with PS as follows: dilute the PS stock solution in n-hexane to 10 μg/ml and mix well. Add 50 μl to each well and allow this to evaporate for one hour. Add 200 μl of 10% serum (or other blocking buffer) to each well, cover and maintain at room temperature for 2 hours or overnight at 4° C. Wash the plate three times with PBS. Add the primary antibody (dilute in blocking buffer) and incubate for 2 hours at 37° C. Wash three times with PBS. Add 100 μl/well of secondary antibody (typically goat. anti-mouse IgG-HRP or other appropriate secondary antibody) and incubate for 1 hour at 37° C. Wash the plate three times with PBS. Develop the ELISA by adding 100 μl of developing solution to each of the wells, develop for 10 minutes, then add 100 μl of stop solution to each plate and read the O.D. at 490 nm.
The specificity of the antibodies was determined by ELISA using plates coated with the following phospholipids: PS, phosphatidylserine; PE, phosphatidylethanolamine; PI, phosphatidylinositol: PA. phosphatidic acid; PG, phosphatidylglycerol; PC, phosphatidylcholine: CL, cardiolipin; and SM, sphingomyelin.
The 1B9, 2G7 and 7C5 antibodies behave essentially the same. These antibodies recognize only PS and require serum or serum proteins for binding to PS. […]

[2] = Reactivity with plastic-immobilized phospholipids (ELISA), panel; type: binding
Experimental: (§1) Phospholipids were dissolved in n-hexane to a concentration of 50 μg/ml. 100 μl of this solution was added to wells of 96-well microtiter plates. After evaporation of the solvent in air, the plates were blocked for 2 h with 10% fetal bovine serum diluted in DPBS containing 2 mM Ca^2+ (binding buffer).
(§2) 9D2 antibody or annexin V were diluted in the binding buffer in the presence of 10% serum at an initial concentration of 6.7 nM. Serial two-fold dilutions were prepared in the plates (100 μl per well). The plates were then incubated for 2 h at room temperature. The plates were washed and the 9D2 and annexin V were detected by goat anti-rat IgM conjugated to HRP and rabbit anti-human annexin V followed by goat anti-rabbit IgG conjugated to HRP (all diluted 1:1000), respectively. Secondary reagents were detected by using chromogenic substrate OPD followed by reading plates at 490 nm using a microplate reader (Molecular Devices, Palo Alto, Calif.).
(§3) The specificity of the 9D2 antibody binding was validated by using control rat IgM of irrelevant specificity (Pharmingen, San Diego, Calif.). The specificity of annexin V binding to phospholipids, which is Ca^2+-dependent, was determined by diluting the reagent in the DPBS containing 5 mM EDTA. Additional negative controls consisted of washing the plates with the binding buffer containing 0.2% of a detergent Tween 20. This treatment extracts lipids, thus removing the phospholipid that was absorbed to plastic. Neither 9D2 antibody nor annexin V bound to detergent-washed plates.

[3] = Reactivity with plastic-immobilized phospholipid (ELISA); details: read-out: EC50 of binding
Experimental: as §1, §2, §3

[4] = system: vascular endothelium of MDA-MB-231 tumors; assay: Double staining study, orthotopic MDA-MB-231 tumors; type: in vivo, mouse; details: biotinylated reagent i.v., one hour
Experimental: In further studies, mice bearing MDA-MB-231 tumors (0.3-0.7 cm^3 in volume) were injected intravenously with 50 μg of biotinylated 9D2, control IgM or annexin V (six mice per group). Biotinylated reagents were first incubated with streptavidin-Cy3 conjugate, washed in PBS. then incubated with MECA 32 antibody followed by FITC-tagged anti-rat IgG secondary antibody. Single images, taken with appropriate filters for Cy3 (red) and FITC (green) fluorescence respectively, were captured by digital camera and transferred to a computer. […] The same method was used to analyze tumors from mice injected with control rat IgM or saline. The percentage of vessels with localized 9D2 or annexin V was calculated as follows: mean number of yellow vessels per field divided by mean number of green (total) vessels multiplied by 100.
Double staining studies were also performed in which mice bearing orthotopic MDA-MB-231 breast tumors were injected intravenously with biotinylated 9D2 antibody, biotinylated control IgM or biotinylated annexin V. One hour later, the mice were exsanguinated, and their tumors were removed and frozen sections were cut. The tumor sections were then stained with Cy3-conjugated streptavidin to detect the biotinylated proteins and with FITC-conjugated MECA32 to detect vascular endothelium. […]

[5] = system: Factor Xa generation on IL-1α-stimulated bEnd.3 cells; assay: Factor Xa formation induced by coaguligand (chromogenic assay); type: cell-based, mouse; details: 10 μg per ml
Experimental: The ability of Annexin V to affect Factor Xa formation induced by coaguligand was determined by a chromogenic assay. IL-1α-stimulated bEnd.3 cells were incubated with anti-VCAM-•tTF and permeabilized by saponin. Annexin V was added at concentrations ranging from 0.1 to 10 μg/ml and cells were incubated for 30 min. before addition of diluted Proplex T. The amount of Factor Xa generated in the presence or absence of Annexin V was determined. Each treatment was performed in duplicate and repeated at least twice.

For “Annexin V: high affinity PS binding ligand; natural ligand of anionic phospholipids and PE”, the “Relative Strength of Reactivity on ELISA” value [1] was “PS = PE = PI = PA > CL > PG”, the “binding to anionic phospholipids in the presence of 5 mM EDTA” value [2] was “abolished” and the “binding to heparin, heparan sulfate or double or single stranded DNA” value [2] was “did not bind detectably”. The “order of strength of binding to phospholipids in ELISA” value ([2]; 10% serum) was “PI>PS=PE=PA=CL>PG”, the EC50 ([3]; CL) was 130 pM and the EC50 ([3]; PA) was 100 pM. The EC50 ([3]; PC) was greater than 8000 pM, the EC50 ([3]; PE) was 100 pM and the EC50 ([3]; PG) was 250 pM. It also gave an EC50 ([3]; PI) of 50 pM, an EC50 ([3]; PS) of 100 pM and an EC50 ([3]; SM) greater than 8000 pM. The “MECA 32 positive vessels that bound the reagent” value [4] was “About 40%” and the “inhibition of factor Xa production” value [5] was 58%.
